Laboratory results from US10081624B2, “Heterocyclic compound” (Takeda Pharmaceutical Company Limited, priority 2014, dated 2018).

What was measured:
HDAC1 enzyme = target: T1, HDAC1 enzyme (Homo sapiens, UniProt Q13547); assay: HDAC1 enzyme inhibitory assay (HDAC-Glo I/II Assay kit); format: biochemical; settings: 1 μM test compound; for inhibition at 1 µM: read-out: HDAC1 inhibitory rate (%) (1 μM)
T1 construct: prepared by transducing full length HDAC1 and HDAC6 genes into Sf-9 insect cells; GST; purchased SignalChem; host or cells: Sf-9 insect cells
T1 sequence (Q13547 whole entry): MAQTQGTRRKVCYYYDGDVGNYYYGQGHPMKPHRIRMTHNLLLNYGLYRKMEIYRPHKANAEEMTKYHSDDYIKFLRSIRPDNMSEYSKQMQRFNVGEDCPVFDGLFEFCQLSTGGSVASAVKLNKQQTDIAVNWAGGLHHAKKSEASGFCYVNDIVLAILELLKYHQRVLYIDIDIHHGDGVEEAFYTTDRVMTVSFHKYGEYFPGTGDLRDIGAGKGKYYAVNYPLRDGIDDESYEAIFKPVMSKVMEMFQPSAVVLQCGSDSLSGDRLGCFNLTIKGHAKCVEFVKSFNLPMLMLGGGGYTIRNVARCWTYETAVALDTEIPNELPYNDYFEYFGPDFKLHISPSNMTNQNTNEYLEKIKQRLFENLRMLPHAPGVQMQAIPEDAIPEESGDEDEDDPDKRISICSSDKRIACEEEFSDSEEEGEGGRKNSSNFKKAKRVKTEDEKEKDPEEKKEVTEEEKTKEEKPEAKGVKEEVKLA
Summary of the method: (§1)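 Luminescence read-out: 20 min after adding HDAC-Glo substrate-developer at room temperature. Before that, compound and Sf-9-expressed, GST-purified full-length HDAC1 or HDAC6 sat together 60 min in pH 7.5 Tris buffer. Inhibition is relative to no-enzyme wells taken as 100%.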

HDAC6 enzyme = target: T2, HDAC6 enzyme (Homo sapiens, UniProt Q9UBN7); assay: HDAC6 enzyme inhibitory assay (HDAC-Glo I/II Assay kit); format: biochemical; settings: 1 μM test compound; for inhibition at 1 µM: read-out: HDAC6 inhibitory rate (%) (1 μM)
T2 construct: prepared by transducing full length HDAC1 and HDAC6 genes into Sf-9 insect cells; GST; purchased SignalChem; host or cells: Sf-9 insect cells
T2 sequence (Q9UBN7 1-1215): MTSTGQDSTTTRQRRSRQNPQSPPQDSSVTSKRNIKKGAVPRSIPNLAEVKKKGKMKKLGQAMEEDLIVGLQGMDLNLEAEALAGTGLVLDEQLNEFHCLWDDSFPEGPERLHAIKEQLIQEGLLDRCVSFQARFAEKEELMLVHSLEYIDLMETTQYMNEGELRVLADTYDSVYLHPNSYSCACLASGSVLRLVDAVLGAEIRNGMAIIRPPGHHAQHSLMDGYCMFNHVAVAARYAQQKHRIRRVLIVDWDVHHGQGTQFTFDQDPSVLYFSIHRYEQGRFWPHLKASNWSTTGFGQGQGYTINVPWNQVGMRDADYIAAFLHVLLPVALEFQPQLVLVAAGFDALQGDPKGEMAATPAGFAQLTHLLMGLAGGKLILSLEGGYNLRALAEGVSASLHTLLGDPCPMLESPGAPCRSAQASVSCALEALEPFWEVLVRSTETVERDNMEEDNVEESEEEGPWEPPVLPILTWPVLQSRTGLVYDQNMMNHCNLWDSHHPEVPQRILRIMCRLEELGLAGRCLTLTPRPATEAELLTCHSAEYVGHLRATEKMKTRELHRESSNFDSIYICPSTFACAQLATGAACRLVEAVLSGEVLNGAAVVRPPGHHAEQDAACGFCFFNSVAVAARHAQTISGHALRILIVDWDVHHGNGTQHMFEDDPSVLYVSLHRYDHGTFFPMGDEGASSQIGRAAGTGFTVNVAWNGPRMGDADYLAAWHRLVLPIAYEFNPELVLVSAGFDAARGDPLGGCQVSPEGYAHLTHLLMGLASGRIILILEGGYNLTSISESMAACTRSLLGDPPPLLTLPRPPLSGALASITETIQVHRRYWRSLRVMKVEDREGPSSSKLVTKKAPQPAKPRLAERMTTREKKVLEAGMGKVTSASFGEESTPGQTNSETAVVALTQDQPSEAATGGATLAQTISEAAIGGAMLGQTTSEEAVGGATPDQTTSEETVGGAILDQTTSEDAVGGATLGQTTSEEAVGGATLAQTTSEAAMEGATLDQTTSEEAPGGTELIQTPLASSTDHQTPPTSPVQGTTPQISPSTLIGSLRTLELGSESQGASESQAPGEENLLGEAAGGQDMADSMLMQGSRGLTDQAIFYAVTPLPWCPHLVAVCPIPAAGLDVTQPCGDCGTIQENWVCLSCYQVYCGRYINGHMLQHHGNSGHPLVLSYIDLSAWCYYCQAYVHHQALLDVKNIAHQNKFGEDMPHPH
Summary of the method: as §1

| Structure (SMILES) | inhibition at 1 µM (HDAC1 enzyme) | inhibition at 1 µM (HDAC6 enzyme) | HDAC1 inhibitory rate (%) (1 μM) (HDAC1 enzyme) | HDAC6 inhibitory rate (%) (1 μM) (HDAC6 enzyme) | HDAC1 inhibitory rate (%) (1 μM) (HDAC1 enzyme; 1 µM) |
| --- | --- | --- | --- | --- | --- |
| O=C(NCC1COCCN1C(=O)c1cccc(-c2ccccc2)c1)c1ccc(-c2noc(C(F)(F)F)n2)cc1 (centres unmarked) [Example 31, N-((4-(biphenyl-3-ylcarbonyl)morpholin-3-yl)methyl)-4-(5-(trifluoromethyl)-1,2,4-oxadiazol-3-yl)benzamide] | 28% | 96% |  |  |  |
| O=C(NCC1COCCN1C(=O)c1ccccc1-c1ccccc1)c1ccc(-c2noc(C(F)(F)F)n2)cc1 (centres unmarked) [Example 32, N-((4-(biphenyl-2-ylcarbonyl)morpholin-3-yl)methyl)-4-(5-(trifluoromethyl)-1,2,4-oxadiazol-3-yl)benzamide] | 23% | 96% |  |  |  |
| Cn1nc2ccccc2c1C(=O)N1CCOCC1CNC(=O)c1ccc(-c2noc(C(F)(F)F)n2)cc1 (centres unmarked) [Example 33, N-((4-((2-methyl-2H-indazol-3-yl)carbonyl)morpholin-3-yl)methyl)-4-(5-(trifluoromethyl)-1,2,4-oxadiazol-3-yl)benzamide] | 47% | 99% |  |  |  |
| O=C(NCC1COCCN1C(=O)c1ccnc(C2CC2)c1)c1ccc(-c2noc(C(F)(F)F)n2)cc1 (centres unmarked) [Example 34, N-((4-(2-cyclopropylisonicotinoyl)morpholin-3-yl)methyl)-4-(5-(trifluoromethyl)-1,2,4-oxadiazol-3-yl)benzamide] | 18% | 98% |  |  |  |
| O=C(NCC1COCCN1C(=O)C1CCc2ccccc2O1)c1ccc(-c2noc(C(F)(F)F)n2)cc1 (centres unmarked) [Example 35, N-((4-(3,4-dihydro-2H-chromen-2-ylcarbonyl)morpholin-3-yl)methyl)-4-(5-(trifluoromethyl)-1,2,4-oxadiazol-3-yl)benzamide] | 30% | 92% |  |  |  |
| O=C(NC[C@H]1COCCN1C(=O)c1ccccc1)c1ccc(-c2noc(C(F)(F)F)n2)cc1 [Example 36, N-(((3S)-4-benzoylmorpholin-3-yl)methyl)-4-(5-(trifluoromethyl)-1,2,4-oxadiazol-3-yl)benzamide] |  |  | 21% | 105% |  |
| O=C(NC[C@H]1COCCN1C(=O)c1cc(Cl)cc(Cl)c1)c1ccc(-c2noc(C(F)(F)F)n2)cc1 [Example 37, N-(((3S)-4-(3,5-dichlorobenzoyl)morpholin-3-yl)methyl)-4-(5-(trifluoromethyl)-1,2,4-oxadiazol-3-yl)benzamide] |  |  |  | 98% | 27% |
| Cn1nccc1C(=O)N1CCOC[C@@H]1CNC(=O)c1ccc(-c2noc(C(F)(F)F)n2)cc1 [Example 38, N-(((3S)-4-((1-methyl-1H-pyrazol-5-yl)carbonyl)morpholin-3-yl)methyl)-4-(5-(trifluoromethyl)-1,2,4-oxadiazol-3-yl)benzamide] | 25% | 100% |  |  |  |
| O=C(NC[C@H]1COCCN1C(=O)c1cc(F)cc(F)c1)c1ccc(-c2noc(C(F)(F)F)n2)cc1 [Example 39, N-(((3S)-4-(3,5-difluorobenzoyl)morpholin-3-yl)methyl)-4-(5-(trifluoromethyl)-1,2,4-oxadiazol-3-yl)benzamide] | 18% | 100% |  |  |  |
| N#Cc1cc(F)cc(C(=O)N2CCOC[C@@H]2CNC(=O)c2ccc(-c3noc(C(F)(F)F)n3)cc2)c1 [Example 40, N-(((3S)-4-(3-cyano-5-fluorobenzoyl)morpholin-3-yl)methyl)-4-(5-(trifluoromethyl)-1,2,4-oxadiazol-3-yl)benzamide] | 17% | 99% |  |  |  |
| O=C(NC[C@H]1COCCN1C(=O)c1cccc(F)c1)c1ccc(-c2noc(C(F)(F)F)n2)cc1 [Example 41, N-(((3S)-4-(3-fluorobenzoyl)morpholin-3-yl)methyl)-4-(5-(trifluoromethyl)-1,2,4-oxadiazol-3-yl)benzamide] |  |  |  | 98% | 65% |
| COc1cccc(C(=O)N2CCOC[C@@H]2CNC(=O)c2ccc(-c3noc(C(F)(F)F)n3)cc2)c1 [Example 42, N-(((3S)-4-(3-methoxybenzoyl)morpholin-3-yl)methyl)-4-(5-(trifluoromethyl)-1,2,4-oxadiazol-3-yl)benzamide] | 16% |  |  | 101% |  |
| N#Cc1ccccc1C(=O)N1CCOC[C@@H]1CNC(=O)c1ccc(-c2noc(C(F)(F)F)n2)cc1 [Example 43, N-(((3S)-4-(2-cyanobenzoyl)morpholin-3-yl)methyl)-4-(5-(trifluoromethyl)-1,2,4-oxadiazol-3-yl)benzamide] | 14% |  |  | 101% |  |
| N#Cc1cccc(C(=O)N2CCOC[C@@H]2CNC(=O)c2ccc(-c3noc(C(F)(F)F)n3)cc2)c1 [Example 44, N-(((3S)-4-(3-cyanobenzoyl)morpholin-3-yl)methyl)-4-(5-(trifluoromethyl)-1,2,4-oxadiazol-3-yl)benzamide] | 16% |  |  | 99% |  |
| N#Cc1ccc(C(=O)N2CCOC[C@@H]2CNC(=O)c2ccc(-c3noc(C(F)(F)F)n3)cc2)cc1 [Example 45, N-(((3S)-4-(4-cyanobenzoyl)morpholin-3-yl)methyl)-4-(5-(trifluoromethyl)-1,2,4-oxadiazol-3-yl)benzamide] | 25% |  |  | 99% |  |
| O=C(NC[C@H]1COCCN1C(=O)c1ccccc1N1CCOCC1)c1ccc(-c2noc(C(F)(F)F)n2)cc1 [Example 46, N-(((3S)-4-(2-(morpholin-4-yl)benzoyl)morpholin-3-yl)methyl)-4-(5-(trifluoromethyl)-1,2,4-oxadiazol-3-yl)benzamide] |  |  |  | 95% | 12% |
| O=C(NC[C@H]1COCCN1C(=O)c1cc(F)c(F)c(F)c1)c1ccc(-c2noc(C(F)(F)F)n2)cc1 [Example 47, N-(((3S)-4-(3,4,5-trifluorobenzoyl)morpholin-3-yl)methyl)-4-(5-(trifluoromethyl)-1,2,4-oxadiazol-3-yl)benzamide] |  |  | 11% | 102% |  |
| O=C(NC[C@H]1COCCN1C(=O)c1ccncc1)c1ccc(-c2noc(C(F)(F)F)n2)cc1 [Example 48, N-(((3S)-4-isonicotinoylmorpholin-3-yl)methyl)-4-(5-(trifluoromethyl)-1,2,4-oxadiazol-3-yl)benzamide] | 16% |  |  | 98% |  |
| Cc1cc(C(=O)N2CCOC[C@@H]2CNC(=O)c2ccc(-c3noc(C(F)(F)F)n3)cc2)ccn1 [Example 49, N-(((3S)-4-(2-methylisonicotinoyl)morpholin-3-yl)methyl)-4-(5-(trifluoromethyl)-1,2,4-oxadiazol-3-yl)benzamide] | 13% |  |  | 98% |  |
| O=C(NC[C@H]1COCCN1C(=O)c1ccc(OCC(F)(F)F)nc1)c1ccc(-c2noc(C(F)(F)F)n2)cc1 [Example 51, N-(((3S)-4-((6-(2,2,2-trifluoroethoxy)pyridin-3-yl)carbonyl)morpholin-3-yl)methyl)-4-(5-(trifluoromethyl)-1,2,4-oxadiazol-3-yl)benzamide] | 15% | 99% |  |  |  |
| O=C(NC[C@H]1COCCN1C(=O)C1CCc2ccccc2O1)c1ccc(-c2noc(C(F)(F)F)n2)cc1 (stereo partly drawn) [Example 52, N-(((3S)-4-(3,4-dihydro-2H-chromen-2-ylcarbonyl)morpholin-3-yl)methyl)-4-(5-(trifluoromethyl)-1,2,4-oxadiazol-3-yl)benzamide] | 18% | 97% |  |  |  |
| N#CC1(C(=O)N2CCOC[C@@H]2CNC(=O)c2ccc(-c3noc(C(F)(F)F)n3)cc2)CC1 [Example 55, N-(((3S)-4-((1-cyanocyclopropyl)carbonyl)morpholin-3-yl)methyl)-4-(5-(trifluoromethyl)-1,2,4-oxadiazol-3-yl)benzamide] | 17% | 96% |  |  |  |
